# Assay results from US7300784B2 (priority 2001, dated 2007).
# “And” between values parts separate entries of the source, which are not always exact repeats. Equal values may be shown once. Read-outs that look alike come from different tables or passages of the source.
# Key:
# [1] = tested on: nitrile hydratase of Rhodococcus sp. Cr4; experiment: Substrate specificity of the purified nitrile hydratase (amide formation by HPLC); assay type: biochemical; details: for substrate suitability: purified nitrile hydratase
# Description: (§1) The standard assay method for the nitrile hydratase activity used in the following Examples as follows. The enzyme reaction is initiated by adding 3-cyanopyridine or 2-hydroxy-4-methylthiobutyronitrile (HMBN) as the substrate compound. In the case of 3-cyanopyridine, incubation was continued at 20° C. for 10 minute, in the case of HMBN, at 20° C. for 15 minutes. When 3-cyanopyridine was used in the reaction, 0.1 ml of 2 N hydrochloric acid was added to the reaction and the mixture was shaken vigorously to stop the reaction; when HMBN was used in the reaction, 0.1 ml of the reaction solution was added to 0.9 ml of 0.1% (v/v) phosphoric acid and the mixture was shaken vigorously to stop the reaction. The reaction solution was analyzed by HPLC.
# • 0.3 M 3-cyanopyridine was added to initiate the reaction. • The mixture was incubated with shaking at 20° C. for […]. • 2 N HCl was added to stop the reaction. • Centrifugation. • HPLC analysis.
# The substrate specificity of the enzymewas examined. With the standard composition reaction solution shown in table 2, 2.92 U enzyme was incubated with various types of substrates, instead of 3-cyanopyridine; the generation of amides in the reaction solution was analyzed by HPLC. Thus, the relative activity was determined. The types of substrate compounds added, final concentrations thereof, reaction times, and HPLC conditions used for the analyses of products corresponding to the respective substrates are shown in Table 6. The HPLC conditions (1)-(9) are indicated next to Table 6.
# The conditions for HPLC were as follows: • (1) Column: Waters Spherisorb 5 μODS2 (4.6×150 mm); • Solvent: 10 mM KH2PO4(pH 2.8)/acetonitrile (v/v)=9:1; • Flow rate: 1.0 ml/min; • Detection: 230 nm; • Injection volume: 5 μl. • (2) Column: Waters Spherisorb 5 μODS2 (4.6×150 mm); • Solvent: 10 mM KH2PO4(pH 2.8)/acetonitrile (v/v)=9:1; • Flow rate: 1.0 ml/min; • Detection: 230 nm; • Injection volume:5 μl. • (3) Column: Waters Spherisorb 5 μODS2 (4.6×150 mm); • Solvent: 5 mM KH2PO4 (pH 2.8)/acetonitrile (v/v)=12:7; • Flow rate: 1.0 ml/min; • Detection: 230 nm; • Injection volume: 5 μl. • (4) Column: Waters Spherisorb 5 μODS2 (4.6×150 mm); • Solvent: 10 mM KH2PO4(pH 2.5)/acetonitrile (v/v)=99:1; • Flow rate: 1.0 ml/min; • Detection: 210 nm; • Injection volume: 5 μl. • (5) Column: Waters Spherisorb 5 μODS2 (4.6×150 mm); • Solvent: 10 mM KH2PO4(pH 2.5)/acetonitrile (v/v)=99:1; • Flow rate: 1.0 ml/min; • Detection: 230 nm; • Injection volume: 5 μl. • (6) Column: Spherisorb S5ODS2 (4.6×150 mm) • Solvent: 0.1% (v/v) phosphate/acetonitrile (v/v)=99:1; • Flow rate: 1.0 ml/min; • Detection: 210 nm; • Injection volume: 5 μl. • (7) Column: Spherisorb S5ODS2 (4.6×150 mm); • Solvent: 0.1% (v/v) phosphate/acetonitrile (v/v)=9:1; • Flow rate: 1.0 ml/min; • Detection: 210 nm; • Injection volume: 5 μl; • Temperature: 40° C. • (8) Column: Spherisorb S5ODS2 (4.6×150 mm); • Solvent: 0.1%(v/v) phosphate/acetonitrile (v/v)=9:1; • Flow rate: 1.0 ml/min; • Detection: 230 nm; • Injection volume: 5 μl • Temperature: 40° C. • (9) Column: Spherisorb S5ODS2 (4.6×150 mm); • Solvent: 5 mM KH2PO4 (pH 2.8)/acetonitrile (v/v)=12:7; • Flow rate: 1.0 ml/min; • Detection: 210 nm; • Injection volume: 5 μl; • Temperature: 40° C. 13. The Effect of Inhibitors on the Enzymatic Activity
# [2] = tested on: nitrile hydratase of Rhodococcus sp. Cr4; assay type: biochemical; details: for effect on enzyme activity (words): inhibitors
# Description: as §1
# • 10% (v/v) HMBN was added to initiate the reaction. • The mixture was incubated with shaking at 20° C. for 10 minutes. • 0.1% (v/v) H3PO4 was added to stop the reaction. • Centrifugation. • HPLC analysis.
# Inhibitors to the enzyme were studied. With the standard composition of reaction solution shown in Table 1, various inhibitors were added at a final concentration 1.0 mM or 0.1 mM to the solutions containing 2.92 U enzyme; after the mixtures were incubated at 20° C. for 10 minutes, the reaction was carried out for 15 minutes.
# [3] = tested on: nitrile hydratase of Rhodococcus sp. Cr4; experiment: Effect of coexisting Ni++ ion with various substrates; assay type: biochemical; details: for effect of Ni++ on activity with this substrate: Ni++ added
# Description: Then, with the standard composition of reaction solution shown in table 2, various types of substrates, instead of 3-cyanopyridine, were added to the solutions containing 2.92 U enzyme to study their effects on the activity. […] The addition of Ni^++ ion was assumed to specifically enhance the reaction efficiency when the substrate was a α-hydroxynitrile (Table 11).
# The incubation was prolonged for 10 minutes at 20° C. using 2.92 U enzyme. 17. Determination of N-Terminal Amino Acid Sequence
# [4] = tested on: nitrile hydratase of Rhodococcus sp. Cr4; assay type: biochemical
# [5] = tested on: nitrile hydratase of Rhodococcus sp. Cr4; experiment: Effect of substrate concentration (Km value, Lineweaver-Burk plot); assay type: biochemical; details: 20° C., 15 minutes
# Description: The Km value for HMBN was determined from the S-V plot (FIG. 4) and Lineweaver-Burk plot (FIG. 5). 0.0585 U of the enzyme was added to solutions containing HMBN at various concentrations and the reactions were incubated at 20° C. for 15 minutes. The reactions were analyzed by HPLC.
# In addition, the Km value for 3-cyanopyridine was determined from the S-V plot (FIG. 6) and Lineweaver-Burk plot (FIG. 7). Similarly, 0.0265 U of the enzyme was added to solutions containing 3-cyanopyridine at various concentrations and the reactions were incubated at 20° C. for 15 minutes. The reactions were analyzed by HPLC.
# [6] = tested on: Rhodococcus rhodochrous ATCC 332878; assay type: cell-based
# [7] = tested on: Rhodococcus sp. Cr4; assay type: cell-based
# [8] = compound used as substrate, activity for 3-cyanopyridine = 100%, 20° C., 2.92 U enzyme
# [9] = compound 1.0 mM, Free = 100, HMBN substrate, 20° C.
# [10] = compound used as substrate, methanol added (final conc. 20% v/v), 20° C., 2.92 U enzyme
structure (smiles),measurement,setting,value
N#Cc1cnccn1 [Cyanopyrazine],Relative activity (%),[1]; [8],114%
O=C(O)c1cc[c]([Hg][Cl])cc1 [p-Chloromercuribenzoate],Relative activity (%),[2]; [9],97.7%
O=C(O)CN(CCN(CC(=O)O)CC(=O)O)CC(=O)O [EDTA],Relative activity (%),[2],101%
N#Cc1cccc(Cl)c1 [m-Chlorobenzonitrile],Relative activity (%),[1],7.18%
CCCCCC#N [n-Capronitrile],Relative activity (%),[1]; [10],18.1%
N#Cc1ccccn1 [2-Cyanopyridine],"activity, Free",[3],100
same,"activity, NiCl2 (1 mM)",[3],97
same,Relative activity (%),[1]; [8],223%
same,substrate suitability,[1],suitable substrates
CC(C)C#N [Isobutyronitrile],Relative activity (%),[1]; [10],40.9%
O=[N+]([O-])[O-].[Ag+] [AgNO3],Relative activity (%),[4],7.85%
same,effect on enzyme activity (words),[4],markedly inhibited
"CSCCC(O)C#N (centres unmarked) [HMBN, 2-hydroxy-4-methylthiobutyronitrile]","activity, Free",[3],100
same,"activity, NiCl2 (1 mM)",[3],196
same,effect of Ni++ on activity with this substrate,[3],enhanced twice
same,Relative activity (%),[1]; [8],154%
same,Km,[5],1430 µM
NNc1ccccc1 [Phenylhydrazine],Relative activity (%),[2]; [9],8.19%
same,effect on enzyme activity (words),[2]; listed as phenyl hydrazine,markedly inhibited
same,effect on enzyme activity (words),[2]; listed as phenylhydrazine,inhibited
CCC#N [Propionitrile],Relative activity (%),[1]; [8],173%
N#CC(O)c1ccccc1 (centres unmarked) [Manderonitlile],"activity, Free",[3],100
same,"activity, NiCl2 (1 mM)",[3],201
same,effect of Ni++ on activity with this substrate,[3],enhanced twice
N#Cc1ccncc1 [4-Cyanopyridine],"activity, Free",[3],100
same,"activity, NiCl2 (1 mM)",[3],99
same,Relative activity (%),[1]; [8],127%
N#Cc1ccc(Cl)cc1 [p-Chlorobenzonitrile],Relative activity (%),[1],28.4%
CCCCC#N [n-Valeronitrile],Relative activity (%),[1]; [10],118%
O=C(O)c1cc(SSc2ccc([N+](=O)[O-])c(C(=O)O)c2)ccc1[N+](=O)[O-] [5-5′-Dithiobis],Relative activity (%),[2],99.1%
CCN1C(=O)C=CC1=O [N-Ethylmaleimide],Relative activity (%),[2]; [9],101%
N#CCN [Aminoacetonitlile],"activity, Free",[3],0
same,"activity, NiCl2 (1 mM)",[3],0
N#CCCO [Etylene cyanohydrin],"activity, Free",[3],100
same,"activity, NiCl2 (1 mM)",[3],91
C/C(N)=C/C#N [β-aminochlotononitlile],"activity, Free",[3],0
same,"activity, NiCl2 (1 mM)",[3],0
[Cl][Ni][Cl] [NiCl2],Relative activity (%),[6],193%
same,Relative activity (%),[4],196% and 185% and 171% and 197% and 195% and 184%
same,effect on enzyme activity (words),[4],enhanced
same,enhancement of the enzymatic activity,[4],enhanced twice
same,Relative activity (%),[7],186%
same,effect on nitrile hydratase activity in resting cell reaction,[7],enhanced
N#CCO [Hydroxyacetonitlile],"activity, Free",[3],0
same,"activity, NiCl2 (1 mM)",[3],0
N[C@@H]1CONC1=O [D-Cycloserine],Relative activity (%),[2]; [9],94.8%
N#CCc1c[nH]c2ccccc12 [3-Indolylacetonitrile],Relative activity (%),[1]; [10],2.33%
NO [Hydroxylamine],Relative activity (%),[2]; [9],62.1%
same,effect on enzyme activity (words),[2],markedly inhibited
C=CC#N [Acrylonitrile],Relative activity (%),[1]; [8],114%
O=S(=O)([O-])[O-].[Zn+2] [ZnSO4],Relative activity (%),[4],84.1%
[Ca+2].[Cl-].[Cl-] [CaCl2],Relative activity (%),[4],96.4%
CC=CC#N [Crotononitrile],"activity, Free",[3],100
same,"activity, NiCl2 (1 mM)",[3],103
same,Relative activity (%),[1]; [8],87.4%
N#Cc1ccccc1 [Benzonitrile],Relative activity (%),[1],138%
CC(C)CC#N [Isovaleronitrile],Relative activity (%),[1]; [10],2.71%
N#CCC(N)=O [2-Cyanoacetamide],Relative activity (%),[1]; [8],46.3%
O=S(=O)([O-])[O-].[Fe+2] [FeSO4],Relative activity (%),[4],78.9%
O=S(=O)([O-])[O-].[Cu+2] [CuSO4],Relative activity (%),[4],109%
N#CCCN [3-aminopropyonitlile],"activity, Free",[3],100
same,"activity, NiCl2 (1 mM)",[3],97
[Cl][Hg][Cl] [HgCl2],Relative activity (%),"[4]; metal 1.0 mM, Free = 100, incubated 20° C. 10 minutes",7.48%
same,effect on enzyme activity (words),[4]; metal ions,inhibited
same,effect on enzyme activity (words),"[4]; metal ions, listed as Hg^++",markedly inhibited
O=C(O)CI [Iodoacetate],Relative activity (%),[2],97.0%
N#Cc1cccnc1 [3-Cyanopyridine],"activity, Free",[3],100
same,"activity, NiCl2 (1 mM)",[3],99
same,Relative activity (%),[1]; [8],100%
same,Relative activity (%),[1]; [10],76.5%
same,Km,[5],1380 µM
CCCC#N [n-Butyronitrile],"activity, Free",[3],100
same,"activity, NiCl2 (1 mM)",[3],94
same,Relative activity (%),[1]; [10],379%
same,substrate suitability,[1],suitable substrates
O=S(=O)(O)c1cc(O)c(O)c(S(=O)(=O)O)c1 [Tiron],Relative activity (%),[2]; [9],132%
N#CCC#N [Malononitrile],substrate suitability,[1],suitable substrates
C=C(C)C#N [Methacrylonitrile],Relative activity (%),[1]; [8],93.7%
[Cl][Fe]([Cl])[Cl] [FeCl3],Relative activity (%),[4],100%
[N-]=[N+]=[N-].[Na+] [NaN3],Relative activity (%),[2],98.5%
CC#N [Acetonitrile],Relative activity (%),[1],14.6%
NC(N)=O [Urea],Relative activity (%),[2]; [9],95.7%
O[C@H](CS)[C@H](O)CS (racemic) [Dithiothreitol],Relative activity (%),[2]; [9],93.4%
N#Cc1ccccc1Cl [o-Chlorobenzonitrile],Relative activity (%),[1]; [10],58.6%
NCCS [Cysteamine],Relative activity (%),[2],106%
[Cl][Mn][Cl] [MnCl2],Relative activity (%),[4],96.7%
